# According to article PMC9687610, “Adenosine-Mimicking Derivatives of 3-Aminopyrazine-2-Carboxamide: Towards Inhibitors of Prolyl-tRNA Synthetase with Antimycobacterial Activity” (Biomolecules, 2022):
# Where two headings read alike, the source gives them in different places.
# Experiments:
# [1] = system: M. aurum DSM 43999 (ATCC 23366); assay: Microplate Alamar Blue Assay (MABA), M. aurum; type: cell-based; conditions: Mycolicibacterium aurum, read-out: M. aurum MIC
# [2] = system: Mycobacterium smegmatis DSM 43465 (ATCC 607); assay: Microplate Alamar Blue Assay (MABA), M. smegmatis; type: cell-based; conditions: Mycolicibacterium smegmatis, read-out: M. smegmatis MIC
# [3] = system: Escherichia coli CCM 3954 (ATCC 25922); assay: Antibacterial microdilution broth (EUCAST), EC; type: cell-based; conditions: Escherichia coli
# [4] = system: Aspergillus fumigatus ATCC 204305; assay: Antifungal microdilution broth (EUCAST), AF; type: cell-based; conditions: Aspergillus fumigatus, ATCC204305
# [5] = system: Aspergillus flavus CCM 8363; assay: Antifungal microdilution broth (EUCAST), AFla; type: cell-based; conditions: Aspergillus flavus, CCM8363
# [6] = system: Staphylococcus epidermidis CCM 4418 (ATCC 12228); assay: Antibacterial microdilution broth (EUCAST), SE; type: cell-based
# [7] = system: Pseudomonas aeruginosa CCM 3955 (ATCC 27853); assay: Antibacterial microdilution broth (EUCAST), PA; type: cell-based; conditions: Pseudomonas aeruginosa
# [8] = system: Lichtheimia corymbifera CCM 8077; assay: Antifungal microdilution broth (EUCAST), LC; type: cell-based; conditions: Lichtheimia corymbifera, CCM8077
# [9] = system: Klebsiella pneumoniae CCM 4415 (ATCC 10031); assay: Antibacterial microdilution broth (EUCAST), KP; conditions: for KP MIC: read after 24 h; for MIC: Klebsiella pneumoniae
# [10] = system: Candida albicans CCM 8320 (ATCC 24433); assay: Antifungal microdilution broth (EUCAST), CA; type: cell-based; conditions: Candida albicans
# [11] = system: Enterococcus faecalis CCM 4224 (ATCC 29212); assay: Antibacterial microdilution broth (EUCAST), EF; type: cell-based; conditions: Enterococcus faecalis
# [12] = system: HepG2 human hepatocellular carcinoma cells; assay: In vitro HepG2 cytotoxicity (CellTiter 96); conditions: for IC50: Homo sapiens, HepG2, 24 h, read-out: HepG2 IC50, 24 h incubation, * limit = highest evaluated concentration (precipitation in medium), ** over the 1000 µM limit
# [13] = system: Candida tropicalis CCM 8264 (ATCC 750); assay: Antifungal microdilution broth (EUCAST), CT; type: cell-based; conditions: Candida tropicalis
# [14] = system: Staphylococcus aureus subsp. aureus CCM 4223 (ATCC 29213); assay: Antibacterial microdilution broth (EUCAST), SA; type: cell-based; conditions: Staphylococcus aureus
# [15] = system: Mycobacterium tuberculosis H37Ra ITM-M006710 (ATCC 9431); assay: Microplate Alamar Blue Assay (MABA), Mtb H37Ra; type: cell-based; conditions: Mycobacterium tuberculosis, 120 h, pH 6.6, MABA, Middlebrook 7H9 broth pH 6.6, resazurin after 120 h; read-out: Mtb H37Ra MIC
# [16] = system: Staphylococcus aureus subsp. aureus methicillin-resistant (MRSA) CCM 4750 (ATCC 43300); assay: Antibacterial microdilution broth (EUCAST), MRSA; type: cell-based; conditions: Staphylococcus aureus
# [17] = system: Candida krusei CCM 8271 (ATCC 6258); assay: Antifungal microdilution broth (EUCAST), CK; type: cell-based; conditions: Pichia kudriavzevii
# [18] = system: Trichophyton interdigitale CCM 8377 (ATCC 9533); assay: Antifungal microdilution broth (EUCAST), TI; type: cell-based; conditions: Trichophyton interdigitale
# [19] = system: Acinetobacter baumannii DSM 30007 (ATCC 19606); assay: Antibacterial microdilution broth (EUCAST), ACI; type: cell-based; conditions: Acinetobacter baumannii
# [20] = system: Candida parapsilosis CCM 8260 (ATCC 22019); assay: Antifungal microdilution broth (EUCAST), CP; type: cell-based; conditions: Lodderomyces parapsilosis
# [21] = read after 24 h, read-out: EC MIC
# [22] = read after 24 h, read-out: AF MIC
# [23] = read after 24 h, read-out: AFla MIC
# [24] = read after 24 h, read-out: SE MIC
# [25] = read after 24 h, read-out: PA MIC
# [26] = read after 24 h, read-out: LC MIC
# [27] = read after 24 h, read-out: CA MIC
# [28] = read after 24 h, read-out: EF MIC
# [29] = read after 24 h, read-out: CT MIC
# [30] = read after 24 h, read-out: SA MIC
# [31] = read after 24 h, read-out: MRSA MIC
# [32] = read after 24 h, read-out: CK MIC
# [33] = read after 24 h, read-out: ACI MIC
# [34] = read after 24 h, read-out: CP MIC
# [35] = internal quality control, 90% growth inhibition, 48 h (moulds), 530 nm, read-out: MIC, spectrophotometric detection*
# [36] = internal quality control, no visible growth, 48 h (moulds), read-out: MIC, visual detection**
# [37] = internal quality control, 90% growth inhibition, 24 h, 530 nm, read-out: MIC, spectrophotometric detection*
# [38] = internal quality control, no visible growth, 24 h, read-out: MIC, visual detection**
# [39] = internal quality control, 95% growth inhibition, 24 h, 530 nm, read-out: MIC, spectrophotometric detection
# [40] = internal quality control, no visible growth, 24 h, read-out: MIC, visual detection
# [41] = internal quality control, 50% growth inhibition, 48 h (moulds), 530 nm, read-out: MIC, spectrophotometric detection***
# [42] = internal quality control, 50% growth inhibition, 24 h, 530 nm, read-out: MIC, spectrophotometric detection***
SMILES,"MIC ([1]; MABA, resazurin after 72 h)","MIC ([2]; MABA, resazurin after 48 h)","MIC [3, 21]","MIC [4, 22]","MIC [5, 23]","MIC [6, 24]","MIC [7, 25]","MIC [8, 26]",KP MIC [9],"MIC [10, 27]","MIC [11, 28]",IC50 [12],"MIC [13, 29]","MIC [14, 30]",MIC [15],"MIC [16, 31]","MIC [17, 32]","MIC ([18]; 72 h, read-out: TI MIC)","MIC [19, 33]","MIC [20, 34]",other results
NC(=O)c1nccnc1NC(=O)c1ccccc1 [Compound 1],≥ 500 µg/mL,≥ 500 µg/mL,> 500 µM,> 500 µM,> 500 µM,> 500 µM,> 500 µM,> 500 µM,> 500 µM,> 500 µM,> 500 µM,> 250 µM,> 500 µM,> 500 µM,250 µg/mL,> 500 µM,> 500 µM,> 500 µM,> 500 µM,> 500 µM,–
NC(=O)c1nccnc1NC(=O)c1ccccc1Cl [Compound 13],≥ 500 µg/mL,≥ 500 µg/mL,> 500 µM,> 500 µM,> 500 µM,> 500 µM,> 500 µM,> 500 µM,> 500 µM,> 500 µM,> 500 µM,> 250 µM,> 500 µM,> 500 µM,≥ 500 µg/mL,> 500 µM,> 500 µM,> 500 µM,> 500 µM,> 500 µM,–
NC(=O)c1nccnc1NC(=O)c1cccc(Cl)c1 [Compound 14],–,–,> 125 µM,> 125 µM,> 125 µM,> 125 µM,> 125 µM,> 125 µM,> 125 µM,> 125 µM,> 125 µM,> 25 µM,> 125 µM,> 125 µM,≥ 125 µg/mL,> 125 µM,> 125 µM,> 125 µM,> 125 µM,> 125 µM,MIC ([1]; 72 h): ≥ 125 µg/mL; MIC ([2]; 48 h): ≥ 125 µg/mL; solubility in the testing medium (in words) ([12]; HepG2 cell culture medium): low solubility
NC(=O)c1nccnc1NC(=O)C12CC3CC(CC(C3)C1)C2 [Compound 28],125 µg/mL,125 µg/mL,> 500 µM,> 500 µM,> 500 µM,> 500 µM,> 500 µM,> 500 µM,> 500 µM,500 µM,> 500 µM,367 µM,> 500 µM,> 500 µM,31.2 µg/mL,> 500 µM,500 µM,125 µM,> 500 µM,> 500 µM,–
"O=C(NC1Cc2ccccc2C1)c1nccnc1NC(=O)C1CCCCC1 [Compound 38, reference compound]",≥ 500 µg/mL,≥ 500 µg/mL,–,–,–,–,–,–,–,–,–,19.6 µM,–,–,62.5 µg/mL,–,–,–,–,–,–
"C[C@@H]1[C@H](O)[C@@H](C)/C=C/C=C/C=C/C=C/C=C/C=C/C=C/[C@H](O[C@@H]2O[C@H](C)[C@@H](O)[C@H](N)[C@@H]2O)C[C@@H]2O[C@](O)(C[C@@H](O)C[C@@H](O)[C@H](O)CC[C@@H](O)C[C@@H](O)CC(=O)O[C@H]1C)C[C@H](O)[C@H]2C(=O)O [amphotericin B, reference compound]",–,–,–,–,–,–,–,–,–,–,–,–,–,–,–,–,–,–,–,–,"MIC [4, 35]: 1 µg/mL; MIC [4, 36]: 1 µg/mL; MIC [5, 35]: 4 µg/mL; MIC [5, 36]: 4 µg/mL; MIC [8, 35]: 0.125 µg/mL; MIC [8, 36]: 0.125 µg/mL; MIC [10, 37]: 0.5 µg/mL; MIC [10, 38]: 0.5 µg/mL; MIC [13, 37]: 1 µg/mL; MIC [13, 38]: 1 µg/mL; MIC [17, 37]: 0.5 µg/mL; MIC [17, 38]: 0.5 µg/mL; MIC [18, 35]: 1 µg/mL; MIC [18, 36]: 1 µg/mL; MIC [20, 37]: 0.5 µg/mL; MIC [20, 38]: 0.5 µg/mL"
"CNC(C)C1CCC(N)C(OC2C(N)CC(N)C(OC3OCC(C)(O)C(NC)C3O)C2O)O1 (stereo not shown) [gentamicin, reference compound]",–,–,–,–,–,–,–,–,–,–,–,–,–,–,–,–,–,–,–,–,"MIC [3, 39]: 1 µg/mL; MIC [3, 40]: 1 µg/mL; MIC [6, 39]: 0.125 µg/mL; MIC [6, 40]: 0.125 µg/mL; MIC [7, 39]: 0.5 µg/mL; MIC [7, 40]: 0.5 µg/mL; MIC ([9]; 24 h, read-out: MIC, visual detection): 0.5 µg/mL; MIC ([9]; ATCC10031|CCM4415, 24 h, read-out: MIC, spectrophotometric detection): 0.5 µg/mL; MIC [11, 39]: > 8 µg/mL; MIC [11, 40]: > 8 µg/mL; MIC [14, 39]: 1 µg/mL; MIC [14, 40]: 0.5 µg/mL; MIC [16, 39]: > 8 µg/mL; MIC [16, 40]: > 8 µg/mL; MIC [19, 39]: 8 µg/mL; MIC [19, 40]: 8 µg/mL"
"C[C@@H](c1ncncc1F)[C@](O)(Cn1cncn1)c1ccc(F)cc1F [voriconazole, reference compound]",–,–,–,–,–,–,–,–,–,–,–,–,–,–,–,–,–,–,–,–,"MIC [4, 41]: 0.25 µg/mL; MIC [4, 36]: 1 µg/mL; MIC [5, 41]: 1 µg/mL; MIC [5, 36]: > 16 µg/mL; MIC [8, 41]: > 16 µg/mL; MIC [8, 36]: > 16 µg/mL; MIC [10, 42]: 0.03 µg/mL; MIC [10, 38]: > 16 µg/mL; MIC [13, 42]: 0.0625 µg/mL; MIC [13, 38]: > 16 µg/mL; MIC [17, 42]: 0.25 µg/mL; MIC [17, 38]: > 16 µg/mL; MIC [18, 41]: > 16 µg/mL; MIC [18, 36]: > 16 µg/mL; MIC [20, 42]: 0.03 µg/mL; MIC [20, 38]: > 16 µg/mL"
